# Measurements taken from the NIST ThermoML archive (doi:10.1016/j.fluid.2014.06.021).
# Numbers after ± are expanded uncertainties.
# Experiment: activity coefficient (dimensionless); of the first substance listed, at infinite dilution; xn = mol fraction of the nth substance listed
# Conditions: 101.33 kPa, Liquid, Chromatography, x1 = 0
SMILES,activity coefficient (323.15 K),activity coefficient (333.15 K),activity coefficient (343.15 K)
c1ccsc1 [thiophene] + C[n+]1ccn(CCCCS(=O)(=O)O)c1.O=S(=O)([O-])C(F)(F)F,2.24 ± 0.15,2.23 ± 0.15,2.22 ± 0.15
c1ccccc1 [benzene] + C[n+]1ccn(CCCCS(=O)(=O)O)c1.O=S(=O)([O-])O,14.4 ± 0.98,12.5 ± 0.85,12.2 ± 0.83
ClCCl [dichloromethane] + C[n+]1ccn(CCCCS(=O)(=O)O)c1.O=S(=O)([N-]S(=O)(=O)C(F)(F)F)C(F)(F)F,1.08 ± 0.07,1.18 ± 0.08,1.28 ± 0.08
CC#N [acetonitrile] + C[n+]1ccn(CCCCS(=O)(=O)O)c1.O=S(=O)([O-])O,1.74 ± 0.12,1.73 ± 0.12,1.73 ± 0.12
CCC[N+](=O)[O-] [1-nitropropane] + C[n+]1ccn(CCCCS(=O)(=O)O)c1.O=S(=O)([O-])C(F)(F)F,1.84 ± 0.12,1.8 ± 0.12,1.77 ± 0.12
CCCCCCCCCCCC [dodecane] + C[n+]1ccn(CCCCS(=O)(=O)O)c1.O=S(=O)([O-])O,1310 ± 90,1200 ± 82,1140 ± 79
CC#N [acetonitrile] + C[n+]1ccn(CCCCS(=O)(=O)O)c1.O=S(=O)([O-])C(F)(F)F,0.68 ± 0.05,0.67 ± 0.05,0.68 ± 0.05
CCc1ccccc1 [ethylbenzene] + C[n+]1ccn(CCCCS(=O)(=O)O)c1.O=S(=O)([N-]S(=O)(=O)C(F)(F)F)C(F)(F)F,5.37 ± 0.37,5.79 ± 0.39,5.8 ± 0.4
CCCCCCCCCCCC [dodecane] + C[n+]1ccn(CCCCS(=O)(=O)O)c1.O=S(=O)([O-])C(F)(F)F,1490 ± 100,1020 ± 70,997 ± 69
Cc1ccccc1 [toluene] + C[n+]1ccn(CCCCS(=O)(=O)O)c1.O=S(=O)([O-])C(F)(F)F,5.74 ± 0.39,5.54 ± 0.38,5.54 ± 0.38
CCC(C)=O [butanone] + C[n+]1ccn(CCCCS(=O)(=O)O)c1.O=S(=O)([N-]S(=O)(=O)C(F)(F)F)C(F)(F)F,0.24 ± 0.03,0.27 ± 0.03,0.3 ± 0.1
ClCCl [dichloromethane] + C[n+]1ccn(CCCCS(=O)(=O)O)c1.O=S(=O)([O-])C(F)(F)F,1.3 ± 0.08,1.46 ± 0.1,1.61 ± 0.11
ClC(Cl)(Cl)Cl [tetrachloromethane] + C[n+]1ccn(CCCCS(=O)(=O)O)c1.O=S(=O)([N-]S(=O)(=O)C(F)(F)F)C(F)(F)F,7.71 ± 0.53,7.99 ± 0.54,8.1 ± 0.6
C1CCCCCC1 [cycloheptane] + C[n+]1ccn(CCCCS(=O)(=O)O)c1.O=S(=O)([O-])C(F)(F)F,225 ± 15,270 ± 19,287 ± 20
CCCCCCCCCCCCC [tridecane] + C[n+]1ccn(CCCCS(=O)(=O)O)c1.O=S(=O)([O-])O,1540 ± 110,1410 ± 97,1350 ± 93
C[N+](=O)[O-] [nitromethane] + C[n+]1ccn(CCCCS(=O)(=O)O)c1.O=S(=O)([N-]S(=O)(=O)C(F)(F)F)C(F)(F)F,0.6 ± 0.1,0.6 ± 0.1,0.6 ± 0.1
CCC[N+](=O)[O-] [1-nitropropane] + C[n+]1ccn(CCCCS(=O)(=O)O)c1.O=S(=O)([N-]S(=O)(=O)C(F)(F)F)C(F)(F)F,1.17 ± 0.07,1.17 ± 0.07,1.18 ± 0.08
"Cc1ccccc1C [1,2-dimethylbenzene] + C[n+]1ccn(CCCCS(=O)(=O)O)c1.O=S(=O)([N-]S(=O)(=O)C(F)(F)F)C(F)(F)F",4.39 ± 0.3,4.64 ± 0.32,4.8 ± 0.3
CCC(=O)CC [pentan-3-one] + C[n+]1ccn(CCCCS(=O)(=O)O)c1.O=S(=O)([N-]S(=O)(=O)C(F)(F)F)C(F)(F)F,0.54 ± 0.04,0.64 ± 0.04,0.77 ± 0.05
CCC[N+](=O)[O-] [1-nitropropane] + C[n+]1ccn(CCCCS(=O)(=O)O)c1.O=S(=O)([O-])O,7.05 ± 0.48,6.92 ± 0.47,6.82 ± 0.46
CCCC(C)=O [pentan-2-one] + C[n+]1ccn(CCCCS(=O)(=O)O)c1.O=S(=O)([O-])C(F)(F)F,2.11 ± 0.14,2.14 ± 0.15,2.19 ± 0.15
CCCCCCCCCCCCCC [tetradecane] + C[n+]1ccn(CCCCS(=O)(=O)O)c1.O=S(=O)([N-]S(=O)(=O)C(F)(F)F)C(F)(F)F,1180 ± 81,1060 ± 73,941 ± 65
CCCCCCCCCC [decane] + C[n+]1ccn(CCCCS(=O)(=O)O)c1.O=S(=O)([N-]S(=O)(=O)C(F)(F)F)C(F)(F)F,371 ± 26,336 ± 23,281 ± 19

SMILES,activity coefficient (323.15 K),activity coefficient (333.15 K),activity coefficient (343.15 K)
"Cc1cccc(C)c1 [1,3-dimethylbenzene] + C[n+]1ccn(CCCCS(=O)(=O)O)c1.O=S(=O)([O-])O",62.8 ± 4.3,55.4 ± 3.8,54.5 ± 3.7
CCC(C)=O [butanone] + C[n+]1ccn(CCCCS(=O)(=O)O)c1.O=S(=O)([O-])C(F)(F)F,1.06 ± 0.07,1 ± 0.06,0.96 ± 0.06
"Cc1ccc(C)cc1 [1,4-dimethylbenzene] + C[n+]1ccn(CCCCS(=O)(=O)O)c1.O=S(=O)([N-]S(=O)(=O)C(F)(F)F)C(F)(F)F",5.11 ± 0.35,5.47 ± 0.37,5.55 ± 0.38
c1ccsc1 [thiophene] + C[n+]1ccn(CCCCS(=O)(=O)O)c1.O=S(=O)([O-])O,6.56 ± 0.45,6.43 ± 0.44,6.13 ± 0.42
CCC(C)=O [butanone] + C[n+]1ccn(CCCCS(=O)(=O)O)c1.O=S(=O)([O-])O,5.49 ± 0.37,5.17 ± 0.35,4.47 ± 0.3
"Cc1ccccc1C [1,2-dimethylbenzene] + C[n+]1ccn(CCCCS(=O)(=O)O)c1.O=S(=O)([O-])C(F)(F)F",8.26 ± 0.56,8.21 ± 0.56,7.97 ± 0.54
CCCCCCCCCCCC [dodecane] + C[n+]1ccn(CCCCS(=O)(=O)O)c1.O=S(=O)([N-]S(=O)(=O)C(F)(F)F)C(F)(F)F,684 ± 47,588 ± 40,557 ± 38
CC#N [acetonitrile] + C[n+]1ccn(CCCCS(=O)(=O)O)c1.O=S(=O)([N-]S(=O)(=O)C(F)(F)F)C(F)(F)F,0.4 ± 0.1,0.42 ± 0.04,0.45 ± 0.04
"Cc1ccc(C)cc1 [1,4-dimethylbenzene] + C[n+]1ccn(CCCCS(=O)(=O)O)c1.O=S(=O)([O-])O",56.6 ± 3.9,54.4 ± 3.7,50.6 ± 3.5
c1ccsc1 [thiophene] + C[n+]1ccn(CCCCS(=O)(=O)O)c1.O=S(=O)([N-]S(=O)(=O)C(F)(F)F)C(F)(F)F,0.83 ± 0.05,0.83 ± 0.05,0.82 ± 0.05
Cc1ccccc1 [toluene] + C[n+]1ccn(CCCCS(=O)(=O)O)c1.O=S(=O)([N-]S(=O)(=O)C(F)(F)F)C(F)(F)F,3.1 ± 0.2,3.28 ± 0.22,3.31 ± 0.23
c1ccccc1 [benzene] + C[n+]1ccn(CCCCS(=O)(=O)O)c1.O=S(=O)([O-])C(F)(F)F,3.36 ± 0.23,3.29 ± 0.22,3.2 ± 0.2
CCC(=O)CC [pentan-3-one] + C[n+]1ccn(CCCCS(=O)(=O)O)c1.O=S(=O)([O-])O,14.2 ± 0.97,13.8 ± 0.94,13.2 ± 0.9
CCc1ccccc1 [ethylbenzene] + C[n+]1ccn(CCCCS(=O)(=O)O)c1.O=S(=O)([O-])C(F)(F)F,10.8 ± 0.74,10.3 ± 0.7,10.3 ± 0.7
"Cc1cccc(C)c1 [1,3-dimethylbenzene] + C[n+]1ccn(CCCCS(=O)(=O)O)c1.O=S(=O)([N-]S(=O)(=O)C(F)(F)F)C(F)(F)F",5.19 ± 0.35,5.49 ± 0.37,5.57 ± 0.38
C[N+](=O)[O-] [nitromethane] + C[n+]1ccn(CCCCS(=O)(=O)O)c1.O=S(=O)([O-])C(F)(F)F,0.72 ± 0.05,0.71 ± 0.05,0.71 ± 0.05
ClC(Cl)(Cl)Cl [tetrachloromethane] + C[n+]1ccn(CCCCS(=O)(=O)O)c1.O=S(=O)([O-])C(F)(F)F,12.4 ± 0.85,12.1 ± 0.83,11.4 ± 0.78
"Cc1ccc(C)cc1 [1,4-dimethylbenzene] + C[n+]1ccn(CCCCS(=O)(=O)O)c1.O=S(=O)([O-])C(F)(F)F",10.1 ± 0.69,9.86 ± 0.67,9.52 ± 0.65
CCCCCCCCCCCCC [tridecane] + C[n+]1ccn(CCCCS(=O)(=O)O)c1.O=S(=O)([N-]S(=O)(=O)C(F)(F)F)C(F)(F)F,1080 ± 75,911 ± 63,832 ± 57
ClC(Cl)Cl [trichloromethane] + C[n+]1ccn(CCCCS(=O)(=O)O)c1.O=S(=O)([O-])C(F)(F)F,2.12 ± 0.14,2.18 ± 0.15,2.19 ± 0.15
CCOCC [diethyl ether] + C[n+]1ccn(CCCCS(=O)(=O)O)c1.O=S(=O)([N-]S(=O)(=O)C(F)(F)F)C(F)(F)F,0.4 ± 0.1,0.53 ± 0.04,0.65 ± 0.04
"Cc1cccc(C)c1 [1,3-dimethylbenzene] + C[n+]1ccn(CCCCS(=O)(=O)O)c1.O=S(=O)([O-])C(F)(F)F",10.4 ± 0.71,10.1 ± 0.7,9.84 ± 0.67
CCCCO [butan-1-ol] + C[n+]1ccn(CCCCS(=O)(=O)O)c1.O=S(=O)([N-]S(=O)(=O)C(F)(F)F)C(F)(F)F,,0.19 ± 0.03,0.23 ± 0.03
